Test results as given in the CheMixHub viscosity set.

Assay: xn = mol fraction of the nth substance listed

O=C1CCCC1 + Nc1cccc(Cl)c1
viscosity [mPa·s], 100 kPa
Conditions	x2 = 0.0805	x2 = 0.1814	x2 = 0.2804	x2 = 0.3815	x2 = 0.4998	x2 = 0.5995	x2 = 0.6995	x2 = 0.7875	x2 = 0.9071
303.15 K	1.111	1.291	1.493	1.731	2.058	2.379	2.752	3.127	3.719
308.15 K	1.047	1.211	1.395	1.611	1.903	2.19	2.521	2.852	3.373
313.15 K	0.9683	1.117	1.282	1.474	1.734	1.987	2.278	2.568	3.023
318.15 K	0.9063	1.039	1.185	1.354	1.58	1.799	2.049	2.296	2.681

NC1CCCCC1 + COCCO
308.15 K, 101 kPa
Conditions	viscosity [mPa·s]
x2 = 0.1393	1.314
x2 = 0.267	1.303
x2 = 0.3844	1.298
x2 = 0.4927	1.29
x2 = 0.593	1.294
x2 = 0.6861	1.283
x2 = 0.7727	1.263
x2 = 0.8536	1.254
x2 = 0.9291	1.242

O=C1CCCC1 + COC(=O)c1ccccc1
viscosity [mPa·s], 101 kPa
Conditions	x2 = 0.0744	x2 = 0.1523	x2 = 0.2344	x2 = 0.3214	x2 = 0.418	x2 = 0.5133	x2 = 0.6186	x2 = 0.737	x2 = 0.8638
303.15 K	1.058	1.115	1.176	1.223	1.284	1.339	1.407	1.481	1.573
313.15 K	0.91	0.946	0.984	1.026	1.071	1.116	1.164	1.218	1.285

CC(O)CO (stereo not given) + CO
viscosity [mPa·s], 101 kPa
Conditions	x1 = 0.1	x1 = 0.2	x1 = 0.3	x1 = 0.4	x1 = 0.5	x1 = 0.6	x1 = 0.7	x1 = 0.8	x1 = 0.9
298.15 K	0.8967	1.436	2.244	3.432	5.254	7.972	12.13	18.51	28.39
308.15 K	0.7629	1.187	1.814	2.731	4.083	6.016	8.726	12.53	17.88
318.15 K	0.6278	0.9689	1.457	2.129	3.054	4.33	6.037	8.242	11.2

ClC=C(Cl)Cl + CCO
viscosity [mPa·s], 101.33 kPa
Conditions	x2 = 0.15	x2 = 0.3	x2 = 0.45	x2 = 0.6	x2 = 0.75	x2 = 0.9
293.15 K	0.6368	0.7027	0.7685	0.8344	0.9003	0.9601
303.15 K	0.59	0.6477	0.7071	0.765	0.8177	0.8581
313.15 K	0.521	0.569	0.6186	0.6692	0.7193	0.7593

ClC=C(Cl)Cl + O=C1CCCCC1
viscosity [mPa·s], 101.33 kPa
Conditions	x1 = 0.1122	x1 = 0.2059	x1 = 0.3057	x1 = 0.4263	x1 = 0.4957	x1 = 0.4987	x1 = 0.6177	x1 = 0.7064	x1 = 0.7889	x1 = 0.9152
298.15 K	1.589	1.365	1.215	1.069	–	0.988	0.883	0.803	0.739	0.666
308.15 K	1.339	1.174	1.062	0.944	0.878	–	0.789	0.723	0.68	0.618
318.15 K	1.158	1.034	0.933	0.835	0.791	–	0.719	0.672	0.633	0.582
